Source: patent US20080280953A1, “Agents Used for the Treatment of Seeds” (Bayer Cropscience AG, priority 2004, published 2008)

What was measured:
Type in all cases: in vivo
[1] = test system: green peach aphid (Myzus persicae); assay: Myzus test (spray treatment), Chinese cabbage leaf sections; conditions: for pest or weed control at 500 g/ha: Myzus persicae, 120 h, after 5 d, read-out: Death rate in % after 5 d; for activity after 5 days: 500 g/ha
Procedure: (§1) To prepare a suitable active compound preparation 1 part by weight of the active compound is mixed with the given amount of solvent and emulsifier and the concentrate is diluted to the desired concentration with water containing emulsifier.
Chinese cabbage leaf sections (Brassica pekinensis) infested with all stages of the green peach aphid (Myzus persicae) are sprayed with an active compound preparation at the desired concentration.
After the desired time the activity in % is determined. Here 100% means that all aphids were killed; 0% means that no aphids were killed.

[2] = test system: cotton aphid (Aphis gossypii); assay: Aphis gossypii test, immersion of cotton leaves; conditions: 100 g/ha (so in the source), cotton leaves immersed
Procedure: as §1
Cotton plant leaves (Gossypium hirsutum) heavily infected with the cotton aphid (Aphis gossypii) are treated by immersing in the active compound preparation at the desired concentration. After the desired time the death rate in % is determined. Here 100% means that all aphids were killed; 0% means that no aphids were killed.

[3] = test system: rice brown plant hopper (Nilaparvata lugens); assay: Nilaparvata lugens test; hydroponic treatment (NILALU SYS); conditions: 500 g/ha
Procedure: To prepare a suitable active compound preparation I part by weight of the active compound is mixed with the given amount of solvent and emulsifier and the concentrate is diluted to the desired concentration with water containing emulsifier.
The active compound preparation is pipetted into water. […] Infection is then carried out with rice brown plant hopper (Nilaparvata lugens).
After the desired time the activity in % is determined. Here 100% means that all plant hoppers were killed; 0% means that no plant hoppers were killed.

[4] = test system: eggs of the cotton boll worm (Heliotis virescens); assay: Heliothis virescens test (spray treatment); conditions: 500 g/ha, spray on soy bean leaves
Procedure: as §1
Soy bean leaves (Glycine max.) are sprayed with an active compound preparation at the desired concentration and after drying were infected with eggs of the cotton boll worm (Heliotis virescens).
After the desired time the activity in % is determined. Here 100% means that all eggs were killed; 0% means that no eggs were killed.

Lucilia cuprina larvae = assay: Fly larvae test; conditions: 100 ppm
Procedure: 10 mg active compound were dissolved in 0.5 ml dimethylsulphoxide. To prepare a suitable formulation the active compound solution is diluted with water to the respective desired concentration.
About 20 Lucilia cuprina larvae are placed in a test tube that contains ca. 1 cm^3 horse flesh and 0.5 ml of the active compound preparation under test.
After the desired time the death rate in % is determined. Here 100% means that all larvae were killed; 0% means that no larvae were killed.

[5] = test system: caterpillars of the fall army worm (Spodoptera frugiperda); assay: Spodoptera frugiperda test (spray treatment); conditions: 500 g/ha
Procedure: as §1
Maize leaf sections (Zea mays) are sprayed with an active compound preparation at the desired concentration and after drying treated with caterpillars of the fall army worm (Spodoptera frugiperda).
After the desired time the activity in % is determined. Here 100% means that all caterpillars were killed; 0% means that no caterpillars were killed.

[6] = test system: green peach aphid (Myzus persicae); assay: Myzus persicae test (hydroponic treatment); conditions: pea plant; for activity after 7 days: 20 ppm
Procedure: To prepare a suitable active compound preparation 1 part by weight of the active compound is mixed with the given amount of solvent and emulsifier and the concentrate is diluted to the desired concentration with water.
The active compound preparation is mixed with water. The concentration given refers to the amount of active compound per unit volume water (mg/l=ppm). The treated water is placed into a vessel with one pea plant (Pisum sativum). After the prescribed time infection with the green peach aphid (Myzus persicae) is carried out.
After the desired time the death rate in % is determined. Here 100% means that all aphids were killed; 0% means that no aphids were killed.

[7] = test system: eggs of the diamond back moth (Plutella xylostella); assay: Plutella test, artificial diet; conditions: 1000 g/ha (so in the source), on artificial diet
Procedure: To prepare a suitable active compound preparation 1 part by weight active compound was mixed with the given amount of solvent and the concentrate was diluted to the desired concentration with methanol.
A given amount of active compound preparation at the desired concentration is pipetted onto a standardised amount of artificial diet. After the methanol has evaporated ca. 200-300 eggs of the diamond back moth (Plutella xylostella) are added to the diet.
After the desired time the death rate of the eggs and larvae, respectively, in % is determined. Here 100% means that all animals were killed; 0% means that no animals were killed.

[8] = test system: adult engorged females of Boophilus microplus (strain Parkhurst-SP resistant); assay: Test with resistant monoxenous cattle ticks/SP-resistant Parkhurst strain, injection method; conditions: 20 μg/animal injected into the abdomen
Procedure: 10 mg of the active compound are dissolved in 0.5 ml dimethylsulphoxide, lower concentrations are prepared by dilution with the same solvent.
The test is carried out five times. 1 μl is injected into the abdomen, the animals are transferred into dishes and stored in an air-conditioned room. The control of activity is carried out on a deposit of fertile eggs after 7 days. Eggs, the fertility of which was not visible externally, were stored in glass tubes in an incubator until larvae hatch after about 24 days. An activity of 100% means that no ticks laid fertile eggs.

[9] = test system: larvae of the mustard leaf beetle (Phaedon cochleariae); assay: Phaedon cochleariae test (spray treatment); conditions: 500 g/ha
Procedure: [table] To prepare a suitable active compound preparation 1 part by weight of the active compound is mixed with the given amount of solvent and emulsifier and the concentrate is diluted to the desired concentration with water containing emulsifier. Chinese cabbage leaf sections (Brassica pekinensis) are sprayed with an active compound preparation at the desired concentration and after drying are infected with larvae of the mustard leaf beetle (Phaedon cochleariae). After the desired time the activity in % is determined.

## CC1OC(=O)C=C1N(C)Cc1ccc(Cl)nc1 (stereo not drawn)
[1]
  pest or weed control at 500 g/ha: 100%

## CN(Cc1ccc(Cl)nc1)C1=CC(=O)CCC1
[1]
  pest or weed control at 500 g/ha: 90%

## O=C1C=C(N(Cc2ccc(Cl)nc2)C2CC2)CC1
[1]
  pest or weed control at 500 g/ha: 100%

## CN(Cc1ccc(Cl)cn1)C1=CC(=O)CC1
[2]
  Death rate in % after 6 d: 95%

## O=C1C=C(NCc2ccc(Cl)nc2)CCC1 [Compound 1]
[3]
  activity after 7 days: 100%
[1]
  activity after 5 days: 100%

## CCCN(Cc1ccc(Cl)nc1)C1=CC(=O)CCC1 [Compound 4]
[1]
  activity after 5 days: 100%

## C=CCN(Cc1ccc(Cl)nc1)C1=CC(=O)CCC1 [Compound 9]
[1]
  activity after 5 days: 100%

## C#CCN(Cc1ccc(Cl)nc1)C1=CC(=O)CCC1 [Compound 10]
[1]
  activity after 5 days: 100%

## Cn1c(NCc2ccc(Cl)nc2)cc(=O)n(C)c1=O [Compound 70]
[1]
  activity after 5 days: 100%

## CCN(Cc1ccc(Cl)nc1)C1=CC(=O)OC1 [Compound 85]
[4]
  Death rate in % after 7 d: 100%
Lucilia cuprina larvae
  death rate after 2 days: 100%
[5]; spray on maize leaf sections, after 7 d
  Death rate in % after 7 d: 100%

## C=CCN(Cc1ccc(Cl)nc1)C1=CC(=O)OC1 [Compound 91]
[6]; 20 g/ha (so in the source), after 7 d
  Death rate in % after 7 d: 100%

## C#CCN(Cc1ccc(Cl)nc1)C1=CC(=O)OC1 [Compound 92]
[1]
  activity after 5 days: 100%

## CC(=O)N(Cc1ccc(Cl)nc1)C1=CC(=O)OC1 [Compound 94]
[1]
  activity after 5 days: 100%

## CON(Cc1ccc(Cl)nc1)C1=CC(=O)OC1 [Compound 98]
[6]
  activity after 7 days: 100%
Lucilia cuprina larvae
  death rate after 2 days: 100%
[1]
  activity after 5 days: 100%

## CN(Cc1ccc(Cl)nc1)C1=C(F)C(=O)OC1 [Compound 104]
Lucilia cuprina larvae
  death rate after 2 days: 100%

## CN(Cc1ccc(Cl)nc1)C1=CC(=O)SC1 [Compound 112]
[7]
  Death rate in % after 7 d: 100%

## CN(Cc1ccc(Br)nc1)C1=CC(=O)OC1 [Compound 121]
[6]
  activity after 7 days: 100%
Lucilia cuprina larvae
  death rate after 2 days: 100%
[5]; spray, after 7 days
  activity after 7 days: 100%
[1]
  activity after 5 days: 100%
[8]
  activity (no fertile eggs laid): 95%

## O=C1C=C(N(Cc2ccc(F)nc2)C2CC2)CO1 [Compound 124]
[1]
  activity after 5 days: 100%

## CN(Cc1ccc(C(F)(F)F)nc1)C1=CC(=O)OC1 [Compound 125]
[6]
  activity after 7 days: 100%
Lucilia cuprina larvae
  death rate after 2 days: 90%
[1]
  activity after 5 days: 100%
[8]
  activity (no fertile eggs laid): 80%

## O=C1C=C(N(Cc2ccc(C(F)(F)F)nc2)C2CC2)CO1 [Compound 126]
[1]
  activity after 5 days: 100%

## CN(Cc1cnc(Cl)s1)C1=CC(=O)OC1 [Compound 144]
[4]
  Death rate in % after 7 d: 99%

## CN(Cc1cccnc1)C1=CC(=O)OC1 [Compound 147]
[1]
  activity after 5 days: 100%

## CN(Cc1ccc(Cl)nc1)C1=CC(=O)CC1 [Compound 175]
Lucilia cuprina larvae
  death rate after 2 days: 100%

## CN(Cc1ccc(Cl)nc1)C1=CC(=O)OC1 [drawing 472]
[1]
  pest or weed control at 500 g/ha: 100%

## CCN(Cc1ccc(Cl)nc1)C1=CC(=O)OC1 [drawing 473]
[1]
  pest or weed control at 500 g/ha: 90%

## CN(Cc1cnc(Cl)s1)C1=CC(=O)OC1 [drawing 474]
[1]
  pest or weed control at 500 g/ha: 100%

## O=C1C=C(NCc2ccc(Cl)nc2)CO1 [drawing 475]
[1]
  pest or weed control at 500 g/ha: 90%

## CN(Cc1ccc(Cl)nc1)C1=C(F)C(=O)OC1 [drawing 477]
[1]
  pest or weed control at 500 g/ha: 100%

## O=C1C=C(N(Cc2ccc(Cl)nc2)C2CC2)CO1 [drawing 478]
[1]
  pest or weed control at 500 g/ha: 100%

## C=CCN(Cc1ccc(Cl)nc1)C1=CC(=O)OC1 [drawing 479]
[1]
  pest or weed control at 500 g/ha: 100%

## CN(Cc1ccc(Cl)nc1)C1=CC(=O)CC1 [drawing 481]
[1]
  pest or weed control at 500 g/ha: 100%

## CN(Cc1ccc(Cl)nc1)C1=CC(=O)SC1 [drawing 483]
[1]
  pest or weed control at 500 g/ha: 80%

## CN(Cc1ccc(Cl)nc1)C1=CC(=O)OC1 [drawing 484]
[9]
  Death rate in % after 7 d: 100%

## CCN(Cc1ccc(Cl)nc1)C1=CC(=O)OC1 [drawing 485]
[9]
  Death rate in % after 7 d: 100%

## O=C1C=C(N(Cc2ccc(Cl)nc2)C2CC2)CO1 [drawing 486]
[9]
  Death rate in % after 7 d: 100%

## C=CCN(Cc1ccc(Cl)nc1)C1=CC(=O)OC1 [drawing 487]
[9]
  Death rate in % after 7 d: 67%

## CN(Cc1ccc(Cl)nc1)C1=CC(=O)OC1 [drawing 493]
[2]
  Death rate in % after 6 d: 100%

## O=C1C=C(NCc2ccc(Cl)nc2)CO1 [drawing 494]
[2]
  Death rate in % after 6 d: 98%

## C=CCN(Cc1ccc(Cl)nc1)C1=CC(=O)OC1 [drawing 495]
[2]
  Death rate in % after 6 d: 95%
